pIC50: −log10 of the molar value.
How the values were obtained:
[1] = biological target: KRAS G12D (Homo sapiens, UniProt P01116, G12D); test: GDP-GTP exchange assay (bodipy-GDP/GppNHp, SOS1), KRAS G12D; type: biochemical; conditions: bodipy-loaded KRAS G12D 2.5 nM, 4 h pre-incubation; value for the most potent isomer quoted for certain compounds; read-out: G12D (KRAS G12D exchange assay IC50)
[2] = biological target: KRAS G12V (Homo sapiens, UniProt P01116, G12V); test: GDP-GTP exchange assay (bodipy-GDP/GppNHp, SOS1), KRAS G12V; type: biochemical; conditions: KRAS G12V mutant; value for the most potent isomer quoted for certain compounds; read-out: G12V (KRAS G12V exchange assay IC50)
Chain of KRAS G12V (P01116 1-188 isoform P01116-2 G12V): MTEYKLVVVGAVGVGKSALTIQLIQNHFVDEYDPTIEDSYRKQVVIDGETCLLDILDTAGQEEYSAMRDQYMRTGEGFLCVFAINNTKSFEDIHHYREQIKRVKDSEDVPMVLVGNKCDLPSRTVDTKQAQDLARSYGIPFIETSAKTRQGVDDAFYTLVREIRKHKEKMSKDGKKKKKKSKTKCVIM

Chain of KRAS G12D (P01116 1-188 isoform P01116-2 G12D): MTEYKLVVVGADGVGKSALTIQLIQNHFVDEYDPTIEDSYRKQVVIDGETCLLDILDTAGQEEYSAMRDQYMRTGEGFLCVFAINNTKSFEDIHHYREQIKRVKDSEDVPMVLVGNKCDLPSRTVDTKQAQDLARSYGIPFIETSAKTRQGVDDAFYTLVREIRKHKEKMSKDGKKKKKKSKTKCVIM

pIC50 [1]	pIC50 [2]	SMILES
≥ 7.00	≥ 7.00	COc1cnn([C@H]2C[C@H](c3cc4c(C)nc5c(F)c(-c6cccc(Cl)c6Cl)c(CCC#N)cc5c4n3[C@H]3[C@H]4CN[C@@H]3C4)N(C(=O)C3CC3)C2)c1 [Example 352]
≥ 7.00	≥ 7.00	Cc1nc2c(F)c(-c3cccc(Cl)c3Cl)c(CCC#N)cc2c2c1cc([C@H]1C[C@H](OC[C@@H]3CCCC[C@H]3C#N)CN1C(=O)C1CC1)n2[C@H]1[C@H]2CN[C@@H]1C2 [Example 285]
≥ 7.00	≥ 7.00	Cc1nc2c(F)c(-c3cccc(Cl)c3Cl)c(CCC#N)cc2c2c1cc([C@H]1C[C@H](OCC3CC(F)(F)C3)CN1C(=O)C1CC1)n2[C@H]1[C@H]2CN[C@@H]1C2 [Example 445]
≥ 7.00	≥ 7.00	Cc1cn([C@H]2C[C@H](c3cc4c(C)nc5c(F)c(-c6cccc(Cl)c6Cl)c(CCC#N)cc5c4n3[C@H]3[C@H]4CN[C@@H]3C4)N(C(=O)C3CC3)C2)nn1 [Example 343]
≥ 7.00	≥ 7.00	Cc1nc(CO[C@H]2C[C@H](c3cc4c(C)nc5c(F)c(-c6cccc(Cl)c6Cl)c(CCC#N)cc5c4n3[C@H]3[C@H]4CN[C@@H]3C4)N(C(=O)C3CC3)C2)sc1C [Example 358]
≥ 7.00	≥ 7.00	Cc1nc2c(F)c(-c3cccc(Cl)c3Cl)c(CCC#N)cc2c2c1cc([C@H]1C[C@H](Oc3ccn(C)c(=O)c3)CN1C(=O)C1CC1)n2[C@H]1[C@H]2CN[C@@H]1C2 [Example 419]
≥ 7.00	≥ 7.00	CO[C@H]1CC[C@@H](O[C@H]2C[C@H](c3cc4c(C)nc5c(F)c(-c6cccc(Cl)c6Cl)c(CCC#N)cc5c4n3[C@H]3[C@H]4CN[C@@H]3C4)N(C(=O)C3CC3)C2)C1 [Example 439]
≥ 7.00	≥ 7.00	Cc1nc2c(F)c(-c3cccc(Cl)c3Cl)c(CCC#N)cc2c2c1cc([C@H]1C[C@H](n3cc(N4CCOCC4)cn3)CN1C(=O)C1CC1)n2[C@H]1[C@H]2CN[C@@H]1C2 [Example 428]
≥ 7.00	≥ 7.00	Cc1nc2c(F)c(-c3cccc(Cl)c3Cl)c(CCC#N)cc2c2c1cc([C@H]1C[C@H](n3cc(C4CNC(=O)C4)nn3)CN1C(=O)C1CC1)n2[C@H]1[C@H]2CN[C@@H]1C2 (some centres unmarked) [Example 273]
≥ 7.00	≥ 7.00	Cc1nc2c(F)c(-c3cccc(Cl)c3Cl)c(CCC#N)cc2c2c1cc([C@H]1C[C@H](Oc3ccn(CC(F)(F)F)n3)CN1C(=O)C1CC1)n2[C@H]1[C@H]2CN[C@@H]1C2 [Example 411]
≥ 7.00	≥ 7.00	Cc1nc2c(F)c(-c3cccc(Cl)c3Cl)c(CCC#N)cc2c2c1cc([C@H]1C[C@H](OC[C@H]3CCOC3)CN1C(=O)C1CC1)n2[C@H]1[C@H]2CN[C@@H]1C2 [Example 372]
≥ 7.00	≥ 7.00	Cc1nc2c(F)c(-c3cccc(Cl)c3Cl)c(CCC#N)cc2c2c1cc([C@H]1C[C@H](Oc3ccnc(C4CCC4)c3)CN1C(=O)C1CC1)n2[C@H]1[C@H]2CN[C@@H]1C2 [Example 421]
≥ 7.00	≥ 7.00	Cc1nc2c(F)c(-c3cccc(Cl)c3Cl)c(CCC#N)cc2c2c1cc([C@H]1C[C@H](Oc3cc(C(F)(F)F)[nH]n3)CN1C(=O)C1CC1)n2[C@H]1[C@H]2CN[C@@H]1C2 [Example 409]
≥ 7.00	≥ 7.00	Cc1nc2c(F)c(-c3cccc(Cl)c3Cl)c(CCC#N)cc2c2c1cc([C@H]1C[C@H](OCc3cccnc3C(F)(F)F)CN1C(=O)C1CC1)n2[C@H]1[C@H]2CN[C@@H]1C2 [Example 268]
≥ 7.00	6.00 to 7.00	Cc1nc2c(F)c(-c3cccc(Cl)c3Cl)c(CCC#N)cc2c2c1cc([C@H]1C[C@H](n3cc(-c4ccccc4)cn3)CN1C(=O)C1CC1)n2[C@H]1[C@H]2CN[C@@H]1C2 [Example 354]
≥ 7.00	≥ 7.00	CO[C@@H]1CC[C@@H](O[C@H]2C[C@H](c3cc4c(C)nc5c(F)c(-c6cccc(Cl)c6Cl)c(CCC#N)cc5c4n3[C@H]3[C@H]4CN[C@@H]3C4)N(C(=O)C3CC3)C2)C1 [Example 440]
≥ 7.00	≥ 7.00	Cc1nc2c(F)c(-c3cccc(Cl)c3Cl)c(CCC#N)cc2c2c1cc([C@H]1C[C@H](OCC3(C#N)CC3)CN1C(=O)C1CC1)n2[C@H]1[C@H]2CN[C@@H]1C2 [Example 338]
5.30 to 6.00	6.00 to 7.00	Cc1nc2c(F)c(-c3cccc(Cl)c3Cl)c(CCC#N)cc2c2c1cc([C@H]1C[C@H](OC[C@@H]3CCCC[C@H]3C)CN1C(=O)C1CC1)n2[C@H]1[C@H]2CN[C@@H]1C2 [Example 286]
≥ 7.00	≥ 7.00	Cc1nc(C)n([C@H]2C[C@H](c3cc4c(C)nc5c(F)c(-c6cccc(Cl)c6Cl)c(CCC#N)cc5c4n3[C@H]3[C@H]4CN[C@@H]3C4)N(C(=O)C3CC3)C2)n1 [Example 350]
≥ 7.00	≥ 7.00	Cc1cc(F)ncc1O[C@H]1C[C@H](c2cc3c(C)nc4c(F)c(-c5cccc(Cl)c5Cl)c(CCC#N)cc4c3n2[C@H]2[C@H]3CN[C@@H]2C3)N(C(=O)C2CC2)C1 [Example 283]
≥ 7.00	≥ 7.00	COc1ncc(Br)cc1O[C@H]1C[C@H](c2cc3c(C)nc4c(F)c(-c5cccc(Cl)c5Cl)c(CCC#N)cc4c3n2[C@H]2[C@H]3CN[C@@H]2C3)N(C(=O)C2CC2)C1 [Example 450]
≥ 7.00	≥ 7.00	Cc1nc2c(F)c(-c3cccc(Cl)c3Cl)c(CCC#N)cc2c2c1cc([C@H]1C[C@H](N3C(=O)COC3=O)CN1C(=O)C1CC1)n2[C@H]1[C@H]2CN[C@@H]1C2 [Example 320]
≥ 7.00	≥ 7.00	Cc1nc2c(F)c(-c3cccc(Cl)c3Cl)c(CCC#N)cc2c2c1cc([C@H]1C[C@H](n3cc(C4(C)CCC4)nn3)CN1C(=O)C1CC1)n2[C@H]1[C@H]2CN[C@@H]1C2 [Example 384]

More lines, now with the values behind:

SMILES	pIC50 [1]	pIC50 [2]
Cc1nc2c(F)c(-c3cccc(Cl)c3Cl)c(CCC#N)cc2c2c1cc([C@H]1C[C@H](Oc3ccn(C)n3)CN1C(=O)C1CC1)n2[C@H]1[C@H]2CN[C@@H]1C2 [Example 170]	≥ 7.00	≥ 7.00
CC(C)(O)c1ccc(-c2nc3c(F)c(-c4cccc(Cl)c4Cl)c(CCC#N)cc3c3c2cc([C@H]2C[C@H](OCc4c(F)cccc4F)CN2C(=O)C2CC2)n3[C@H]2[C@H]3CN[C@@H]2C3)cn1 [Example 158]	≥ 7.00	≥ 7.00
Cc1cccnc1CO[C@H]1C[C@H](c2cc3c(C)nc4c(F)c(-c5cccc(Cl)c5Cl)c(CCC#N)cc4c3n2[C@H]2[C@H]3CN[C@@H]2C3)N(C(=O)C2CC2)C1 [Example 150]	≥ 7.00	≥ 7.00
[2H]C([2H])(O[C@H]1C[C@H](c2cc3c(C)nc4c(F)c(-c5cccc(Cl)c5Cl)c(CCC#N)cc4c3n2[C@H]2[C@H]3CN[C@@H]2C3)N(C(=O)C2CC2)[C@@H]1C)c1nscc1C [Example 242]	≥ 7.00	≥ 7.00
Cc1nc2c(F)c(-c3cccc(Cl)c3Cl)c(CCC#N)cc2c2c1cc([C@H]1C[C@H](OCc3c(F)cccc3F)CN1C(=O)C1CC1)n2[C@H]1[C@H]2CN[C@@H]1C2 [Example 115]	≥ 7.00	≥ 7.00
Cc1cccc(C(F)(F)F)c1CO[C@H]1C[C@H](c2cc3c(C)nc4c(F)c(-c5cccc(Cl)c5Cl)c(CCC#N)cc4c3n2[C@H]2[C@H]3CN[C@@H]2C3)N(C(=O)C2CC2)C1 [Example 124]	6.00 to 7.00	≥ 7.00
Cc1nc2c(F)c(-c3cccc(Cl)c3Cl)c(CCC#N)cc2c2c1cc([C@H]1C[C@H](OCc3c(F)cccc3C#N)CN1C(=O)C1CC1)n2[C@H]1[C@H]2CN[C@@H]1C2 [Example 126]	≥ 7.00	≥ 7.00
Cc1nc2c(F)c(-c3cccc(Cl)c3Cl)c(CCC#N)cc2c2c1cc([C@H]1C[C@H](n3nncc3-c3ccccc3)CN1C(=O)C1CC1)n2[C@H]1[C@H]2CN[C@@H]1C2 [Example 143]	≥ 7.00	≥ 7.00
Cc1nc2c(F)c(-c3cccc(Cl)c3Cl)c(CCC#N)cc2c2c1cc([C@H]1C[C@H](Oc3cccnc3)CN1C(=O)C1CC1)n2[C@H]1[C@H]2CN[C@@H]1C2 [Example 114]	≥ 7.00	≥ 7.00
COc1ccnc(O[C@H]2C[C@H](c3cc4c(C)nc5c(F)c(-c6cccc(Cl)c6Cl)c(CCC#N)cc5c4n3[C@H]3[C@H]4CN[C@@H]3C4)N(C(=O)C3CC3)C2)n1 [Example 247]	≥ 7.00	≥ 7.00
Cc1nc2c(F)c(-c3cccc(Cl)c3Cl)c(CCC#N)cc2c2c1cc([C@H]1C[C@H](Oc3ccccc3C#N)CN1C(=O)C1CC1)n2[C@H]1[C@H]2CN[C@@H]1C2 [Example 249]	≥ 7.00	≥ 7.00
Cc1nc2c(F)c(-c3cccc(Cl)c3Cl)c(CCC#N)cc2c2c1cc([C@H]1C[C@H](OCc3cncn3C)CN1C(=O)C1CC1)n2[C@H]1[C@H]2CN[C@@H]1C2 [Example 108]	≥ 7.00	≥ 7.00
Cc1nc2c(F)c(-c3cccc(Cl)c3Cl)c(CCC#N)cc2c2c1cc([C@H]1C[C@H](Oc3cccc(C(=O)N4CCCC4)c3)CN1C(=O)C1CC1)n2[C@H]1[C@H]2CN[C@@H]1C2 [Example 223]	≥ 7.00	≥ 7.00
COc1ncccc1O[C@H]1C[C@H](c2cc3c(C(C)O)nc4c(F)c(-c5cccc(Cl)c5Cl)c(CCC#N)cc4c3n2[C@H]2[C@H]3CN[C@@H]2C3)N(C(=O)C2CC2)C1 (some centres unmarked) [Example 221]	≥ 7.00	≥ 7.00
Cc1nc2c(F)c(-c3cccc(Cl)c3Cl)c(CCC#N)cc2c2c1cc([C@H]1C[C@H](Oc3cccc(C(F)(F)F)n3)CN1C(=O)C1CC1)n2[C@H]1C2CNC1C2 (some centres unmarked) [Example 142]	≥ 7.00	≥ 7.00
CN1CCC(c2nc3c(F)c(-c4cccc(Cl)c4Cl)c(CCC#N)cc3c3c2cc([C@H]2C[C@H](OCc4c(F)cccc4F)CN2C(=O)C2CC2)n3[C@H]2[C@H]3CN[C@@H]2C3)CC1 [Example 236]	≥ 7.00	≥ 7.00
COc1ccc(CO[C@H]2C[C@H](c3cc4c(C)nc5c(F)c(-c6cccc(Cl)c6Cl)c(CCC#N)cc5c4n3[C@H]3[C@H]4CN[C@@H]3C4)N(C(=O)C3CC3)C2)c(C#N)c1 [Example 252]	≥ 7.00	≥ 7.00

From patent US20240390340A1 (INCYTE CORPORATION, priority 2023, published 2024)
